Test results reported in patent US20120165319A1, “INHIBITORS OF INTERLEUKIN-1 BETA CONVERTING ENZYME” (VERTEX PHARMACEUTICALS INCORPORATED, priority 1995, published 2012).
Where two headings read alike, the source gives them in different places.

Key:
[1] = Pharmacokinetic studies in the mouse (i.v. clearance, plasma levels); assay type: in vivo; settings: mouse, 25 mg/kg; for clearance: CD-1, plasma, iv
Outline: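 Male CD-1 mice (26-31 g) given 25 mg/kg i.v. via tail vein in 0.02M Tris (2.5 mg/ml), groups of 5 per timepoint from 2 to 120 min. Heparinized plasma deproteinated (perchloric acid or acetonitrile) and analysed by reverse-phase HPLC with UV or MS detection against plasma-spiked calibration (0.5 to 50 μg/ml).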

ICE = target: T1, ICE (Homo sapiens, UniProt P29466); test: Enzyme assay with UV-visible substrate (visible ICE assay, Succinyl-Tyr-Val-Ala-Asp-pNitroanilide); assay type: biochemical
T1 sequence (P29466 120-297 limits assumed): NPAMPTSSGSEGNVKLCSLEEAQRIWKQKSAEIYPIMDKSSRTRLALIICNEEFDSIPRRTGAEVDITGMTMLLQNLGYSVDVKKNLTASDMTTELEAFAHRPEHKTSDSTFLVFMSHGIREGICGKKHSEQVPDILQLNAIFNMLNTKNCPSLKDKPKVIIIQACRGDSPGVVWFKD
T1 sequence (P29466 317-404 limits assumed): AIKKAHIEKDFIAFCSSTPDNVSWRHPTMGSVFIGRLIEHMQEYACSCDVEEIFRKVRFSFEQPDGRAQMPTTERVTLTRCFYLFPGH
Outline: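 Buffer, ICE and inhibitor in DMSO are combined and held 15 min at room temperature. Succinyl-Tyr-Val-Ala-Asp-pNA is then added and absorbance at 405-603 nm tracked for 20 min at 37° C.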

[2] = In vivo rat clearance assay; settings: for clearance: plasma, iv
Outline: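 Rats cannulated a day beforehand received 10–20 mg/kg by intravenous jugular dosing in propylene glycol/saline with 100 mM sodium bicarbonate. Carotid blood was sampled from 0 to 90 min, and plasma was extracted with acetonitrile/0.1% TFA for HPLC quantification. Clearance from non-linear regression pharmacokinetic analysis.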

[3] = tested on: IL-1β production, LPS-challenged mice; test: In vivo acute assay for efficacy as anti-inflammatory agent: LPS-induced IL-1β production in mice; parameters: species or system mouse; settings: for inhibition at 50 mg/kg: Mus musculus, po, read-out: percent inhibition of IL-1β production; for inhibition at 50 mg/kg / percent inhibition of IL-1β production: LPS challenged mice, compound PO, 50 mg/kg; for IP % Inhibition / POS Inhibition: % inhibition of IL-β production, LPS-challenged mice, 50 mg/kg (Table 3); for POS Inhibition: PO
Outline: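 CD1 mice (n=6) were challenged with LPS 20 mg/kg IP and given compound IP in olive oil:DMSO:ethanol (90:5:5) 1 h after LPS, or at the time of challenge for some analogs. Blood was taken 7 h after LPS and serum IL-1β was measured by ELISA. Oral gavage at 50 mg/kg was also tested.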

[4] = 0 h, administered 0 h relative to time of LPS challenge
[5] = 2 h, administered −2 h relative to time of LPS challenge
[6] = 1 h, administered +1 h relative to time of LPS challenge

Compound	Ki (ICE; Table 17) [nM]	clearance ([2]; Table 17) [mL/min/kg]	inhibition at 50 mg/kg [3, 4] [%]	inhibition at 50 mg/kg [3, 5] [%]	Ki (ICE; Table 5) [nM]	clearance ([2]; 10-20 mg/kg) [mL/min/kg]	other results
COc1cccc2nc(C(=O)[C@H](CC(=O)O)NC(=O)[C@@H]3CCCN4C(=O)CC[C@H](NC(=O)CCc5ccccc5)C(=O)N34)oc12 [Compound 135a]	–	–	–	–	–	–	clearance [1]: > 100 mL/min/kg
O=C(O)C[C@H](NC(=O)[C@@H]1CCCN2C(=O)CC[C@H](NC(=O)CCc3ccccc3)C(=O)N12)C(=O)COC(=O)c1c(Cl)cccc1Cl [Compound 136]	–	–	–	–	–	–	clearance [1]: 93 mL/min/kg
CS(=O)(=O)N[C@H]1CCC(=O)N2CCC[C@@H](C(=O)N[C@@H](CC(=O)O)C(=O)COC(=O)c3c(Cl)cccc3Cl)N2C1=O [Compound 138]	–	–	–	–	–	–	clearance [1]: 116 mL/min/kg
O=C[C@H](CC(=O)O)NC(=O)[C@@H]1CCCN2C(=O)CC[C@H](NC(=O)c3cc(Cl)c(O)c(Cl)c3)C(=O)N12 [Compound 214k, [3S(1S,9S)]3-(9-(3,5-Dichloro-4-hydroxybenzoyl)amino-6,10-dioxo-1,2,3,4,7,8,9,10-octahydro-6H-pyridazino[1,2-a][1,2]diazepine-1-carboxamido)-4-oxobutanoic acid]	0.2	22	31	12	–	–	–
CC(=O)Nc1ccc(C(=O)N[C@H]2CCC(=O)N3CCC[C@@H](C(=O)N[C@H](C=O)CC(=O)O)N3C2=O)cc1Cl [Compound 214l, [3S(1S,9S)]3-(9-(3-Chloro-4-acetamidobenzoyl)amino-6,10-dioxo-1,2,3,4,7,8,9,10-octahydro-6H-pyridazino[1,2-a][1,2]diazepine-1-carboxamido)-4-oxobutanoic acid]	6	12	54	0	–	–	–
COc1c(Cl)cc(C(=O)N[C@H]2CCC(=O)N3CCC[C@@H](C(=O)N[C@H](C=O)CC(=O)O)N3C2=O)cc1Cl [Compound 214m]	1.5	33.4	17	0	–	–	–
Cc1cc(C(=O)N[C@H]2CCC(=O)N3CCC[C@@H](C(=O)N[C@H](C=O)CC(=O)O)N3C2=O)cc(C)c1O [Compound 214w]	0.6	–	–	–	–	–	Clearance Rat, i.v. ([2]; Table 17): 15 mL/min/kg; percent inhibition of IL-1β production ([3]; administered 0 h relative to time of LPS challenge): 91%; percent inhibition of IL-1β production ([3]; administered −2 h relative to time of LPS challenge): 11%
CC(=O)N[C@H]1CCC(=O)N2CCC[C@@H](C(=O)N[C@@H](CC(=O)O)C(=O)COC(=O)c3c(Cl)cccc3Cl)N2C1=O [Compound 217c, [3S(1S,9S)]3-(9-Acetylamino-6,10-dioxo-1,2,3,4,7,8,9,10-octahydro-6H-pyridazino-[1,2-a][1,2]diazepine-1-carboxamido)-5-(2,6-dichlorobenzoyloxy)-4-oxopentanoic acid]	–	–	–	–	–	–	clearance [1]: 70 mL/min/kg
O=C(O)CC(NC(=O)[C@@H]1CCCN2C(=O)CC[C@H](NC(=O)c3ccccc3)C(=O)N12)C(=O)CF (stereo partly drawn) [Compound 230e, [3RS,(1S,9S)]3-(9-Benzoylamino-6,10-dioxo-1,2,3,4,7,8,9,10-octahydro-6H-pyridazino[1,2-a][1,2]-diazepine-1-carboxamido)-5-fluoro-4-oxopentanoic acid]	–	–	–	–	–	–	Clearance Mouse, i.v. ([1]; i.v.): 67 mL/min/kg
O=C[C@H](CC(=O)O)NC(=O)[C@@H]1CCCN2C(=O)CC[C@H](NC(=O)c3ccc(Cl)cc3)C(=O)N12 [Compound 416]	–	–	–	–	12	47	IP % Inhibition [3]: 39%; POS Inhibition [3]: 52%
O=C[C@H](CC(=O)O)NC(=O)[C@@H]1CCCN2C(=O)CC[C@H](NC(=O)c3ccc4nc[nH]c4c3)C(=O)N12 [Compound 434]	–	–	63	0	4.9	20	IP % Inhibition [3]: 74%; POS Inhibition [3]: 80%; inhibition at 50 mg/kg [3, 6]: 80%
O=C[C@H](CC(=O)O)NC(=O)[C@@H]1CCCN2C(=O)CC[C@H](NC(=O)c3cc4ccsc4s3)C(=O)N12 [Compound 442]	–	–	–	–	3.2	54	IP % Inhibition [3]: 0%; POS Inhibition [3]: 10%
CN(C)c1cccc(C(=O)N[C@H]2CCC(=O)N3CCC[C@@H](C(=O)N[C@H](C=O)CC(=O)O)N3C2=O)c1 [Compound 470]	–	–	36	0	5	63	–
CN(C)c1ccc(C(=O)N[C@H]2CCC(=O)N3CCC[C@@H](C(=O)N[C@H](C=O)CC(=O)O)N3C2=O)cc1 [Compound 471]	–	–	34	0	1	17	–
CC(=O)N1C[C@H](NC(=O)c2ccc3ccccc3c2)C(=O)N(CC(=O)N[C@H](C=O)CC(=O)O)c2ccccc21 [Compound 605n]	–	–	–	–	12	–	clearance [1]: 28 mL/min/kg
CC(=O)N1C[C@H](NC(=O)c2cc(Cl)c(O)c(Cl)c2)C(=O)N(CC(=O)N[C@H](C=O)CC(=O)O)c2ccccc21 [Compound 656, (3S)-3-[(3S)-2-Oxo-3-(3,5-dichloro, 4-hydroxybenzoyl)amino-5-acetyl-2,3,4,5-tetrahydro-1H-1,5-benzodiazepine-1-acetylamino-]4-oxo-butyric acid]	0.6	2.9	16	31	–	–	–
O=C[C@H](CC(=O)O)NC(=O)CN1C(=O)[C@@H](NC(=O)c2cc(Cl)c(O)c(Cl)c2)CN(C(=O)CO)c2ccccc21 [Compound 662, (3S)-3-[(3S)-2-Oxo-3-(3,5-dichloro-4-hydroxybenzoyl)amino-5-(2-hydroxy)acetyl-2,3,4,5-tetrahydro-1H-1,5-benzodiazepine-1-acetylamino]-4-oxo-butyric acid]	0.5	2.75	75	41	–	–	–
O=C[C@H](CC(=O)O)NC(=O)CN1C(=O)[C@@H](NC(=O)c2ccccc2)CN(C(=O)CO)c2ccccc21 [Compound 668, (3S)-3-[(3S)-2-Oxo-3-benzoylamino-5-(2-hydroxy)acetyl-2,3,4,5-tetrahydro-1H-1,5-benzodiazepine-1-acetylamino]-4-oxo-butyric acid]	9	29	–	–	–	–	inhibition at 50 mg/kg [3, 6]: 53%
Cc1cc(C(=O)N[C@H]2CN(C(=O)CO)c3ccccc3N(CC(=O)N[C@H](C=O)CC(=O)O)C2=O)cc(C)c1O [Compound 691a, (3S)-3-[(3S)-2-Oxo-3-(3,5-dimethyl-4-hydroxybenzoyl)amino-5-hydroxyacetyl-2,3,4,5-tetrahydro-1H-1,5-benzodiazepine-1-acetylamino]-4-oxo-butyric acid]	2.1	9.9	–	–	–	–	–
O=C[C@H](CC(=O)O)NC(=O)CN1C(=O)[C@@H](NC(=O)c2nccc3ccccc23)CN(C(=O)CO)c2ccccc21 [Compound 696, (3S)-3-[(3S)-2-Oxo-3-(isoquinolin-1-oyl)amino-5-hydroxyacetyl-2,3,4,5-tetrahydro-1H-1,5-benzodiazepine-1-acetylamino]-4-oxo-butyric acid]	4.5	13	–	–	–	–	–
O=C[C@H](CC(=O)O)NC(=O)[C@@H]1CCCN2C(=O)CCN(NS(=O)(=O)c3ccccc3)C(=O)N12 [Compound 1027, [3S(4S)]3-(6,10-Dioxo-1,2,3,4,7,8,9,10-octahydro-7-phenylsulphonylamino-6H-pyridazino[1,2-a][1,2,4]triazepine-4-carboxamido)-4-oxobutanoic acid]	–	–	–	–	4000	60	–
O=C[C@H](CC(=O)O)NC(=O)[C@@H]1CCCN2C(=O)CCN(NC(=O)c3cc4ccccc4s3)C(=O)N12 [Compound 1053, [3S(4S)]3-[7-(Benzo[b]thiophene-2-carbonyl)amino-6,10-dioxo-1,2,3,4,7,8,9,10-octahydro-6H-pyridazino[1,2-a][1,2,4]triazepine-4-carboxamido]-4-oxobutanoic acid]	27	34	–	–	–	–	–
COCC(=O)N1C[C@H](NC(=O)c2cccc3ccccc23)C(=O)N(CC(=O)N[C@H](C=O)CC(=O)O)c2ccccc21 [Compound 2201, (3S)-3-[(3S)-2-oxo-3-(1-naphthoyl)amino-5-methoxyacetyl-2,3,4,5-tetrahydro-1H-1,5-benzodiazepine-1-acetylamino]4-oxo-butyric acid]	–	–	–	–	9	60	–
